In PMC5342071, “A first generation inhibitor of human Greatwall kinase, enabled by structural and functional characterisation of a minimal kinase domain construct” (Oncotarget, 2016):

How the values were obtained:
[1] = tested on: 50 different protein kinases; assay: Kinase inhibition profiling against 50 protein kinases (University of Dundee); format: biochemical, human; conditions: 25 μM
Method: In order to gain a greater understanding of potential off-target interactions of GKI-1, we undertook more rigorous kinase inhibition profiling (International Centre for Kinase Profiling, University of Dundee) where GKI-1 was tested against 50 different protein kinases, carefully selected to provide representative sampling across the human kinome.
Figure S9. Kinase phylogeny vs GKI-1 inhibitory activity
Kinome render [Manning et al. (2002)] was used to generate a phylogenetic map with overlapping 25
µM GKI-1 inhibitory activity plotted against 50 kinases, carefully selected to represent the human
kinome. Illustration reproduced courtesy of Cell Signaling Technology, Inc. (www.cellsignal.com)
(1 picture or pasted object on this page, not shown here)

HeLa cells [2] = assay: Immunofluorescence of p-ENSA (Ser67) in nocodazole-arrested HeLa cells; format: cell-based, human
Excerpt: To more directly address the presence of other off-target effects, and / or any level of compound toxicity, we conducted a more comprehensive phenotypic analysis of GKI-1 and GWL siRNA (siGWL, Figure 5A) treated cells by immunofluorescence (IF) and time-lapse video microscopy. Using an antibody that specifically detects phosphorylation of ENSA-Ser67 (p-ENSA), we established an IF assay in order to measure GWL kinase activity in HeLa cells. We treated the cells with nocodazole in order to arrest cells in mitosis, the cell cycle stage where GWL is maximally active (Figure 5B).
Figure 5 In cellulo efficacy of GKI-1 in HeLa cells A. HeLa cells were transfected with either non-targeting (siSCR) or GWL targeting siRNAs (siGWL). GWL and loading control protein (Tubulin) were detected by western analysis. B., C. HeLa cells treated with siSCR or siGWL (48-h) were arrested in mitosis using nocodazole and treated with DMSO, 25 μM or 50 μM GKI-1. […] (C) Quantitation of the IF p-ENSA and GWL signals was performed using the ScanR High-Content Screening Station. […] Time-lapse videos were generated using ImageJ and cellular phenotypes recorded: Mitotic events (D), mitotic arrest (E, F) and failed cytokinesis G. F. Kymographs showing an example of typical phenotypes were generated by capturing images every 5 minutes for 80 minutes. […]
HeLa cells were plated on glass coverslips and then transfected with siRNAs using Lipofectamine RNAiMax [ThermoFisher Scientific]. […] Time-lapse videos for treated cells were recorded on an Olympus IX3 microscope fitted with an Ocra-Flash 4.0 CMOS camera [Hamatsu]. […]
hGWLFL, 100 µl of lysate was diluted 5-fold with IP buffer and combined with 3 µl anti-Flag M2 magnetic Dynabeads [Sigma-Aldrich] overnight at 4 °C. […] The reaction was stopped by adding SDS loading buffer and analysed by western blot: p-ENSA and GWL levels were detected using the anti-phospho(Ser67)-ENSA and anti-MASTL(GWL, Prestige) antibodies. Activity was measured as the p-ENSA/GWL ratio and % kinase activity was normalised to the DMSO control. […]

HeLa cells [3] = assay: Time-lapse video microscopy of HeLa cells; format: cell-based, human
Method: Figure 5 In cellulo efficacy of GKI-1 in HeLa cells A. HeLa cells were transfected with either non-targeting (siSCR) or GWL targeting siRNAs (siGWL). GWL and loading control protein (Tubulin) were detected by western analysis. B., C. HeLa cells treated with siSCR or siGWL (48-h) were arrested in mitosis using nocodazole and treated with DMSO, 25 μM or 50 μM GKI-1. Immunofluorescent staining of p-ENSA (Red) and GWL (Green) was achieved using anti-phospho(Ser67)-ENSA and anti-MASTL(GWL, RIPLY 74C) antibodies and DAPI was used to stain the nucleus (Blue). (C) Quantitation of the IF p-ENSA and GWL signals was performed using the ScanR High-Content Screening Station. The Circularity and Total DAPI parameters were used to identify mitotic cells. D., E. HeLa cells treated with siSCR or siGWL (48-h) were treated with DMSO, 25 or 50 μM GKI-1. 4-h after treatment, μ-slides were mounted onto an Olympus IX73 microscope, within a temperature-controlled 37°C chamber maintained at 5% CO2, and images were acquired every 5-min for 8.5-h. Time-lapse videos were generated using ImageJ and cellular phenotypes recorded: Mitotic events (D), mitotic arrest (E, F) and failed cytokinesis G. F. Kymographs showing an example of typical phenotypes were generated by capturing images every 5 minutes for 80 minutes. Image sequences were chosen to start just before mitotic entry. (B - G) A total of 3 - 5 biological replicates were completed per condition and the t-test statistical module of Prism 6.0 was used to determine p-values (ns (not statistically significant): P > 0.05; *: P ≤ 0.05; **: P ≤ 0.01; ***: P ≤ 0.001).
HeLa cells were plated on glass coverslips and then transfected with siRNAs using Lipofectamine RNAiMax [ThermoFisher Scientific]. 48 hours after treatment, cells to be used for immunofluorescence were treated with nocodozole and DMSO, or GKI-1. After fixing and staining with antibodies, cells were visualised with a ScanR High Content Screening Station [Olympus Life Science]. Time-lapse videos for treated cells were recorded on an Olympus IX3 microscope fitted with an Ocra-Flash 4.0 CMOS camera [Hamatsu]. […]
Immunofluorescence and Time-lapse video microscopy
2.5 X 105 HeLa cells were plated onto glass coverslips in a 6-well plate, or 4-well µ-slides [Ibidi GmbH] were seeded with 5 X 104 cells and then transfected with Qiagen AllStars negative control or Hs_MASTL_6 siRNAs (14) using Lipofectamine RNAiMax [ThermoFisher Scientific]. Media was exchanged with fresh media the next day. 48 hours after siRNA treatment, only cells to be used for immunofluorescence (IF) were treated with nocodazole (200 ng/mL) and DMSO or GKI-1 at the indicated concentration. For IF, cells were fixed, stained with primary mouse anti-GWL and rabbit anti-p-ENSA antibodies, secondary Alexa Fluor 647-conjugated anti-rabbit and Alexa Fluor 488-conjugated anti-mouse antibodies, DAPI and mounted onto glass microscope slides using Diamond Antifade Mountant [Molecular Probes, ThermoFisher Scientific]. Quantitation of IF images was performed using the ScanR High-Content Screening Station [Olympus Life Science] which acquired 220, 40x images per cover slip. Data were normalised against the AllStars negative control siRNA treated cells and values obtained from three biological replicates were reported as the mean ± 1 S.D. To assist with selecting mitotic cells, ScanR imaging software was utilised to gate for mitotic cells using the circularity factor and total […]
To produce time-lapse videos, after 48 hours and cell treatment with DMSO or compound (cells were treated with GKI-1 for 4-h before image acquisition) cells plated in 4-well µ-slides were imaged every 5 minutes for 8.5 hours on an Olympus IX73 microscope, using a 40 x 0.95NA air objective, and recorded on an Orca-Flash 4.0 CMOS camera [Hamatsu]. The computer program Fiji (http://www.fiji.sc/Fiji) was used to generate videos from […]
image sequence TIF files. […]

For `Clc1ccc(Nc2cccc(-c3cn[nH]c3)c2)cc1` [GKI-1, N-(4-chlorophenyl)-3-(1H-pyrazol-4-yl)aniline], the “off-target interactions in kinase panel” value [1] was “several off-target interactions”, the “reduction in p-ENSA levels compared to control” value (HeLa cells [2]; 25 μM, nocodazole-arrested HeLa cells) was 2 fold and the p-ENSA signal (HeLa cells [2]; 50 μM, nocodazole-arrested HeLa cells) was “levels comparable to siGWL treated cells”. For the same compound, the “levels of p-ENSA by immunofluorescence” value (HeLa cells [2]; co-incubation with nocodazole, 25 and 50 μM) was “dose-dependent decrease”, the mitotic events (HeLa cells [3]; 50 μM) was “effect comparable to siGWL treatment” and the “time remaining in prometaphase/metaphase” value (HeLa cells [3]; 50 μM) was “two to six”. The mitotic events (HeLa cells [3]; 25 and 50 μM, vs scrambled control siRNA) was “general decrease in mitotic events”, the failure in cytokinesis (HeLa cells [3]; GKI-1 treated cells compared with GWL depletion) was “only rarely observed” and the “sensitivity of treated cells to fluorescent light” value (HeLa cells [3]; blue to green spectrum, live cell imaging) was “highly sensitive”. The mitotic progression (HeLa cells [3]; relative to SCR-treated cells) was “significant delay in mitotic progression”.
